Data: ChEMBL document CHEMBL6092221, “Discovery of a Novel Macrocyclic Noncovalent CDK7 Inhibitor for Cancer Therapy” (J Med Chem, 2024)
≈ marks a conversion by molar mass, not a printed value.

Assays:
[1] = Cmax in female Balb/c nude mouse at 5 mg/kg, po; assay type: ADME, organism-based; conditions: in vivo
[2] = AUC(0 to t) in female Balb/c nude mouse at 5 mg/kg, po; assay type: ADME, organism-based; conditions: in vivo
[3] = Volume of distribution at steady state in female Balb/c nude mouse at 1 mg/kg, iv; assay type: ADME, organism-based; conditions: in vivo, read-out: Vdss
[4] = Efflux ratio of permeability in human Caco-2 cells; assay type: ADME, cell-based
[5] = Half life in female Balb/c nude mouse at 5 mg/kg, po; assay type: ADME, organism-based; conditions: in vivo
[6] = Permeability in human Caco-2 cells; assay type: ADME, cell-based; conditions: read-out: permeability
[7] = Clearance in female Balb/c nude mouse at 1 mg/kg, iv; assay type: ADME, organism-based; conditions: in vivo
OVCAR-3 [8] = experiment: cells; conditions: Homo sapiens, OVCAR-3, 72 h
Description: Antiproliferative activity against human OVCAR-3 cells assessed as inhibition of cell proliferation incubated for 72 hrs by celltiter-glo assay

HCC70 [9] = experiment: cells; conditions: Homo sapiens, HCC70, 72 h
Description: Antiproliferative activity against human HCC70 cells assessed as inhibition of cell proliferation incubated for 72 hrs by celltiter-glo assay

[10] = target: Cyclin-dependent kinase 7/ cyclin H (Homo sapiens, UniProt P50613); experiment: Binding affinity to CDK7/CyclinH (unknown origin) assessed as dissociation constant by SPR assay; assay type: protein-complex assay
Sequence of Cyclin-dependent kinase 7/ cyclin H (P51946 whole entry): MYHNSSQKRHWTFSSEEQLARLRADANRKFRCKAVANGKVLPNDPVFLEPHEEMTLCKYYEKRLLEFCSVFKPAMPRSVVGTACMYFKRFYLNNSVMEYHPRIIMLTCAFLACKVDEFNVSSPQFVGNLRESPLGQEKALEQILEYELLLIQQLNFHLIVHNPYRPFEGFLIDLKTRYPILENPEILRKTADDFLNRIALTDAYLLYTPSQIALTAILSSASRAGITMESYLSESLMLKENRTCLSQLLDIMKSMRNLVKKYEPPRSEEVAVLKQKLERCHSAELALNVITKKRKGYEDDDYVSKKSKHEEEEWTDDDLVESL
Sequence of Cyclin-dependent kinase 7/ cyclin H (P50613 whole entry): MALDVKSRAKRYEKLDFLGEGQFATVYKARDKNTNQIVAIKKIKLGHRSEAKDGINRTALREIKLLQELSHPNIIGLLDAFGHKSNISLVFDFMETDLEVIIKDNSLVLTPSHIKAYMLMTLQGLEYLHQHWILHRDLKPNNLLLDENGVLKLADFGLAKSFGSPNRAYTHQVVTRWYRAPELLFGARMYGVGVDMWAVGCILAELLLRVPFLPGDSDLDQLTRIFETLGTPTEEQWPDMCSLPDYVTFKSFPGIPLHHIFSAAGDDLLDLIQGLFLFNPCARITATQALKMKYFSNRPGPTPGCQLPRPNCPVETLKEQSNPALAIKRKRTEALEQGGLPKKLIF

[11] = Oral bioavailability in female Balb/c nude mouse at 5 mg/kg; assay type: ADME, organism-based; conditions: in vivo
[12] = Metabolic stability in mouse liver microsomes assessed as intrinsic clearance; assay type: ADME, Microsome; conditions: read-out: CLH
[13] = Cmax in female Balb/c nude mouse at 10 mg/kg, po; assay type: ADME, organism-based; conditions: in vivo
[14] = Oral bioavailability in female Balb/c nude mouse at 10 mg/kg; assay type: ADME, organism-based; conditions: in vivo
[15] = AUC(0 to infinity) in female Balb/c nude mouse at 10 mg/kg, po; assay type: ADME, organism-based; conditions: in vivo
[16] = Half life in female Balb/c nude mouse at 10 mg/kg, po; assay type: ADME, organism-based; conditions: in vivo
[17] = AUC(0 to infinity) in female Balb/c nude mouse at 1 mg/kg, iv; assay type: ADME, organism-based; conditions: in vivo
CDK7/Cyclin H/MNAT1 = CDK7/Cyclin H/MNAT1 (Homo sapiens, UniProt P50613); experiment: Inhibition of CDK7/CyclinH/MAT1 (unknown origin) in presence of ATP by kinase activity assay; assay type: protein-complex assay
Sequence of CDK7/Cyclin H/MNAT1 (P51946 whole entry): as the sequence (P51946 whole entry) above
Sequence of CDK7/Cyclin H/MNAT1 (P50613 whole entry): as the sequence (P50613 whole entry) above
Sequence of CDK7/Cyclin H/MNAT1 (P51948 whole entry, further chain): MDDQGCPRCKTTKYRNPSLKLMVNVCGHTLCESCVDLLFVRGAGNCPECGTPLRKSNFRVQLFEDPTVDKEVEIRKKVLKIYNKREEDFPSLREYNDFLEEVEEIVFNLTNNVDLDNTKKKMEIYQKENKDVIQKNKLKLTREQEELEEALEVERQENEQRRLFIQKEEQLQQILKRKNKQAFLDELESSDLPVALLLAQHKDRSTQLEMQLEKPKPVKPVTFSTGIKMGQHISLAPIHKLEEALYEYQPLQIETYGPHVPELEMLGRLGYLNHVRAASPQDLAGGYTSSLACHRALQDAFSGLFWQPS

[18] = Toxicity in female nu/nu mouse xenografted with human HCC70 cells assessed as body weight loss at 1 to 10 mg/kg, po administered once daily and measured for 4 weeks; assay type: organism-based; conditions: in vivo, 672 h, dose 1-10 mg/kg
[19] = Half life in mouse at 1 mg/kg, iv; assay type: ADME, organism-based; conditions: in vivo, iv, 1 mg/kg
[20] = Cmax in rat at 5 mg/kg, po; assay type: ADME, organism-based; conditions: in vivo
[21] = Volume of distribution at steady state in mouse at 1 mg/kg, iv; assay type: ADME, organism-based; conditions: in vivo, iv, 1 mg/kg
[22] = Drug concentration in rat plasma at 5 mg/kg, po measured after 2 hrs; assay type: ADME, organism-based
[23] = Cmax in mouse at 5 mg/kg, po; assay type: ADME, organism-based; conditions: in vivo
[24] = Cmax in human HCC70 cells xenografted in female nu/nu mouse plasma at 1 mg/kg, po administered once daily; assay type: ADME, organism-based
[25] = AUC(0 to t) in mouse at 5 mg/kg, po; assay type: ADME, organism-based; conditions: in vivo
[26] = Solubility of compound at pH 7.4; assay type: physicochemical; conditions: buffer
[27] = Clearance in dog at 1 mg/kg, iv; assay type: ADME, organism-based, Canis lupus familiaris; conditions: in vivo
[28] = Plasma protein binding in mouse assessed as unbound fraction; assay type: ADME, cell-free
[29] = Cmax in human OVCAR-3 cells xenografted in female Balb/c nude mouse plasma at 5 mg/kg, po administered once daily; assay type: ADME, organism-based
[30] = Plasma protein binding in human assessed as unbound fraction; assay type: ADME, cell-free
[31] = Clearance in rat at 1 mg/kg, iv; assay type: ADME, organism-based; conditions: in vivo
[32] = Half life in dog at 1 mg/kg, iv; assay type: ADME, organism-based, Canis lupus familiaris; conditions: in vivo
[33] = Plasma protein binding in rat assessed as unbound fraction; assay type: ADME, cell-free
OVCAR-3 [34] = experiment: Antitumor activity against human OVCAR-3 cells xenografted in female Balb/c nude mouse assessed as tumor growth inhibition at 2 mg/kg, po administered once daily and measured on day 22; assay type: functional; conditions: OVCAR-3, 528 h, time 22 day, read-out: TGI
[35] = Cmax in dog at 2 mg/kg, po; assay type: ADME, organism-based, Canis lupus familiaris; conditions: in vivo
[36] = AUC(0 to t) in rat at 5 mg/kg, po; assay type: ADME, organism-based; conditions: in vivo
[37] = Drug concentration in rat plasma at 5 mg/kg, po measured after 0.5 hrs; assay type: ADME, organism-based
[38] = AUC(0 to t) in mouse at 1 mg/kg, iv; assay type: ADME, organism-based; conditions: in vivo
hERG = hERG (Homo sapiens, UniProt Q12809); experiment: Inhibition of hERG at 10 uM relative to control; assay type: toxicity
Sequence of hERG (Q12809 whole entry): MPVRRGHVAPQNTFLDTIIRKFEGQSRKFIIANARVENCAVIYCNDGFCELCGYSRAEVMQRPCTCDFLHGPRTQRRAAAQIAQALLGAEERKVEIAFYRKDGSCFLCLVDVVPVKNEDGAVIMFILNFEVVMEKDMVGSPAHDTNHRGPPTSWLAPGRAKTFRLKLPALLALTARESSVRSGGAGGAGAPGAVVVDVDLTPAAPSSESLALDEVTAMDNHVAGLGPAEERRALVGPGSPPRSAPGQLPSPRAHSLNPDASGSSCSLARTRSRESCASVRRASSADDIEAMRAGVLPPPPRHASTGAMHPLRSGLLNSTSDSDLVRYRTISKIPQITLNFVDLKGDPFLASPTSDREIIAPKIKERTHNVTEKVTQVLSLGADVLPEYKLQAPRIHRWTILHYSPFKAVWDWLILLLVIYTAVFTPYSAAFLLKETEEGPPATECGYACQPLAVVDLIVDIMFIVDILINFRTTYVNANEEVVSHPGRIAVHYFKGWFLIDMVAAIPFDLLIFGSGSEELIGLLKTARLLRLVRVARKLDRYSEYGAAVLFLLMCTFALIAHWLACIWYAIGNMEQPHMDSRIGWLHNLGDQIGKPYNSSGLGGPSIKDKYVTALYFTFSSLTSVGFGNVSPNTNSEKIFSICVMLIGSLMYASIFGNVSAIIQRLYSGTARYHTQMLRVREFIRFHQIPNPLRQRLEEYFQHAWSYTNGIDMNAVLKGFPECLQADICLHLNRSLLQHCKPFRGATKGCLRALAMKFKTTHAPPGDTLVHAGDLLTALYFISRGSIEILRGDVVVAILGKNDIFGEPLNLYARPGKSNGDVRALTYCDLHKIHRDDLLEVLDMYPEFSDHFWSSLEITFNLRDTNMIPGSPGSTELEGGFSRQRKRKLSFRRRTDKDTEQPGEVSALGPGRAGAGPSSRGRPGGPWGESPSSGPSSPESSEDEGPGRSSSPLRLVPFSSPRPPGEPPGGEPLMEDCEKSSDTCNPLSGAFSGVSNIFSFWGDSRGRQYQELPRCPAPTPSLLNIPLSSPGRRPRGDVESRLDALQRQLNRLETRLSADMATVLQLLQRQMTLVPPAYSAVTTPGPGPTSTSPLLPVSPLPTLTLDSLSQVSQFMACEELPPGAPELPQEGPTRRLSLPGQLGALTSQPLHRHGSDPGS

[39] = Metabolic stability in rat liver microsomes assessed as intrinsic clearance; assay type: ADME, Microsome; conditions: read-out: CLH
[40] = AUC(0 to t) in rat at 1 mg/kg, iv; assay type: ADME, organism-based; conditions: in vivo
[41] = AUC (0 to t) in dog at 1 mg/kg, iv; assay type: ADME, organism-based, Canis lupus familiaris; conditions: in vivo
[42] = Metabolic stability in human liver microsomes assessed as intrinsic clearance; assay type: ADME, Microsome; conditions: read-out: CLH
[43] = Drug concentration in rat small intestine at 5 mg/kg, po measured after 2 hrs; assay type: ADME, organism-based; conditions: read-out: Ct
[44] = Volume of distribution at steady state in dog at 1 mg/kg, iv; assay type: ADME, organism-based, Canis lupus familiaris; conditions: in vivo, read-out: Vdss
[45] = Volume of distribution at steady state in rat at 1 mg/kg, iv; assay type: ADME, organism-based; conditions: in vivo, read-out: Vdss
[46] = AUC(0 to t) in human HCC70 cells xenografted in female nu/nu mouse plasma at 1 mg/kg, po administered once daily; assay type: ADME, organism-based
[47] = AUC (0 to t) in human OVCAR-3 cells xenografted in female Balb/c nude mouse plasma at 5 mg/kg, po administered once daily; assay type: ADME, organism-based
[48] = Half life in dog at 2 mg/kg, po; assay type: ADME, organism-based, Canis lupus familiaris; conditions: in vivo
[49] = Oral bioavailability in rat at 5 mg/kg; assay type: ADME, organism-based; conditions: in vivo
[50] = Drug concentration in rat small intestine at 5 mg/kg, po measured after 8 hrs; assay type: ADME, organism-based; conditions: read-out: Ct
[51] = Oral bioavailability in mouse at 5 mg/kg; assay type: ADME, organism-based; conditions: in vivo
[52] = Drug concentration in rat plasma at 5 mg/kg, po measured after 8 hrs; assay type: ADME, organism-based
[53] = Oral bioavailability in dog at 2 mg/kg; assay type: ADME, organism-based, Canis lupus familiaris; conditions: in vivo
[54] = Half life in rat at 1 mg/kg, iv; assay type: ADME, organism-based; conditions: in vivo
HCC70 [55] = experiment: Antitumor activity against human HCC70 cells xenografted in female nu/nu mouse assessed as tumor growth inhibition at 1 mg/kg, po administered once daily and measured for 4 weeks; assay type: functional; conditions: HCC70, 672 h, read-out: TGI
[56] = AUC(0 to t) in dog at 2 mg/kg, po; assay type: ADME, organism-based, Canis lupus familiaris; conditions: in vivo
[57] = Half life in mouse at 5 mg/kg, po; assay type: ADME, organism-based; conditions: in vivo
[58] = Drug concentration in rat small intestine at 5 mg/kg, po measured after 0.5 hrs; assay type: ADME, organism-based; conditions: read-out: Ct

Structure (SMILES): CN1C[C@@H](F)CCN(C)[C@H]2CC[C@@H](C2)Nc2ncc(C(F)(F)F)c(n2)-c2c[nH]c3c(P(C)(C)=O)c(ccc23)C1=O
- Cmax [1]: 170 ng/mL
- AUC(0-t) [2]: 365 ng·h/mL
- Vd [3]: 3.6 L/kg
- efflux ratio [4]: 11.2
- half-life [5]: 2.4 h
- Papp [6]: 1.91 ×10⁻⁶ cm/s
- clearance [7]: 55.3 mL/min/kg
- IC50 (OVCAR-3 [8]): 59.1 nM
- IC50 (HCC70 [9]): 66.5 nM
- Kd [10]: 0.12 nM
- bioavailability [11]: 24.3%

Structure (SMILES): CP(C)(=O)c1c2ccc3c(c[nH]c13)-c1nc(ncc1C(F)(F)F)N[C@H]1CC[C@@H](C1)NCCOCCNC2=O
- Vd [3]: 12 L/kg
- CLint scaled [12]: < 13.4 mL/min/kg
- efflux ratio [4]: > 35.8
- Cmax [13]: 89.4 ng/mL
- bioavailability [14]: 22.8%
- Papp [6]: < 0.48 ×10⁻⁶ cm/s
- clearance [7]: 95.9 mL/min/kg
- IC50 (HCC70 [9]): 29 nM
- AUC(0-inf) [15]: 412 ng·h/mL
- half-life [16]: 2 h
- Kd [10]: 0.06 nM
- AUC(0-inf) [17]: 163 ng·h/mL

Structure (SMILES): O=C1NCCCCN[C@@H]2CC[C@H](C2)Nc2ncc(C(F)(F)F)c(n2)-c2c[nH]c3cc1ccc23
- IC50 (CDK7/Cyclin H/MNAT1): 4.6 nM
- IC50 (HCC70 [9]): 207 nM
- Kd [10]: 0.14 nM

Structure (SMILES): CN1CCOCCN(C)[C@H]2CC[C@@H](C2)Nc2ncc(C(F)(F)F)c(n2)-c2c[nH]c3c(P(C)(C)=O)c(ccc23)C1=O
- Cmax [1]: 268 ng/mL
- AUC(0-t) [2]: 572 ng·h/mL
- Vd [3]: 1.5 L/kg
- efflux ratio [4]: 32.5
- half-life [5]: 1.5 h
- Papp [6]: 0.39 ×10⁻⁶ cm/s
- clearance [7]: 41.3 mL/min/kg
- IC50 (OVCAR-3 [8]): 241 nM
- IC50 (HCC70 [9]): 56.1 nM
- bioavailability [11]: 28.4%

Structure (SMILES): CC1(C)CC[C@H](Nc2ncc(C(F)(F)F)c(-c3c[nH]c4c(P(C)(C)=O)c(C#N)ccc34)n2)CN1 [SY-5609]
- Activity [18]: Non-toxic
- t1/2 [19]: 0.6 h
- Cmax [20]: 76 ng/mL
- Vdss [21]: 5.9 L/kg
- concentration at 2 h [22]: 69.3 ng/mL
- Cmax [23]: 339 ng/mL
- Cmax [24]: 33.5 ng/mL
- CLint scaled [12]: < 26.7 mL/min/kg
- AUC(0-t) [25]: 1920 ng·h/mL
- solubility [26]: 172 µg/mL (≈ 351 µM)
- clearance [27]: 14.5 mL/min/kg
- fraction unbound [28]: 0.065
- Cmax [29]: 80 ng/mL
- fraction unbound [30]: 0.142
- clearance [31]: 67.5 mL/min/kg
- half-life [32]: 6.9 h
- fraction unbound [33]: 0.163
- inhibition in vivo at 2 mg/kg (OVCAR-3 [34]): 110%
- Cmax [35]: 123 ng/mL
- AUC(0-t) [36]: 920 ng·h/mL
- concentration at 0.5 h [37]: 13.4 ng/mL
- AUC(0-t) [38]: 406 ng·h/mL
- inhibition at 10 µM (hERG): 37.1%
- Papp [6]: 2.54 ×10⁻⁶ cm/s
- CLint scaled [39]: 4.3 mL/min/kg
- AUC(0-t) [40]: 247 ng·h/mL
- AUC(0-t) [41]: 1110 ng·h/mL
- CLint scaled [42]: 7.2 mL/min/kg
- concentration at 2 h [43]: 5030 ng/g
- Vd [44]: 7.6 L/kg
- Vd [45]: 16.9 L/kg
- AUC(0-t) [46]: 138 ng·h/mL
- IC50 (HCC70 [9]): 72 nM
- AUC(0-t) [47]: 387 ng·h/mL
- half-life [48]: 6.6 h
- bioavailability [49]: 89.7%
- concentration at 8 h [50]: 842 ng/g
- bioavailability [51]: 94.3%
- concentration at 8 h [52]: 43.1 ng/mL
- bioavailability [53]: 65.8%
- half-life [54]: 3.2 h
- inhibition in vivo at 1 mg/kg (HCC70 [55]): 48.8%
- AUC(0-t) [56]: 1460 ng·h/mL
- half-life [57]: 2.7 h
- concentration at 0.5 h [58]: 2500 ng/g

Structure (SMILES): CP(C)(=O)c1c2ccc3c(c[nH]c13)-c1nc(ncc1C(F)(F)F)N[C@H]1CC[C@@H](C1)NCCCCNC2=O
- Vd [3]: 3.6 L/kg
- CLint scaled [12]: < 13.4 mL/min/kg
- efflux ratio [4]: > 15.1
- Cmax [13]: 16.8 ng/mL
- bioavailability [14]: 0.7%
- Papp [6]: < 0.48 ×10⁻⁶ cm/s
- clearance [7]: 49.3 mL/min/kg
- IC50 (HCC70 [9]): 33 nM
- AUC(0-inf) [15]: 26 ng·h/mL
- half-life [16]: 1.4 h
- Kd [10]: 0.16 nM
- AUC(0-inf) [17]: 333 ng·h/mL
